Type in all cases: cell-based
Test [1] concerns cells expressing pluripotency markers derived from human embryonic stem cells. Nature of the test: MTS viability (toxicity) assay of cells expressing pluripotency markers. To be noted: for Raw data (duplicate), first replicate / Raw data (duplicate), second replicate: MTS viability assay raw reading; for Raw data (duplicate), first replicate: replicate 1; for Raw data (duplicate), second replicate: replicate 2; for Average: average of duplicate MTS raw readings; for % Control / viability at 10 µM: viability of cells expressing pluripotency markers, relative to control; for viability at 10 µM: Homo sapiens, Embryonic stem cell. More on the design: Raw data (duplicate), first replicate / Average: unit not given here. A digest of the protocol:
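Cells expressing pluripotency markers, derived from human embryonic stem cells, were plated at 20,000 cells per well in 96-well clear-bottom plates and cultured overnight. Test compounds were applied in assay medium on days 1 and 2, and compound-free medium on days 3 and 4. On day 4, MTS was added and optical density at 490 nm was read in duplicate.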

Test [2] relates to human embryonic stem cells (H9 line). Nature of the test: High content screening assay: cell number (proliferative response). To be noted: for fold induction at 10 µM: Homo sapiens, Embryonic stem cell, read-out: Proliferative Response, Fold over Wnt 3a/AA control. As for the experimental part: (§1) Maintenance of human embryonic stem cells (H9 line) was conducted as described in Example 1. Colonies of cells were maintained in an undifferentiated, pluripotent state with passage on average every four days. Passage was performed by exposing cell cultures to a solution of collagenase (1 mg/ml; Sigma-Aldrich) for 10 to 30 minutes at 37° C. followed by gentle scraping with a pipette tip to recover cell clusters. Clusters were allowed to sediment by gravity, followed by washing to remove residual collagenase. Cell clusters were split at a 1:3 ratio for routine maintenance culture or a 1:1 ratio for immediate assay. The human embryonic stem cell lines used were maintained at passage numbers less than passage 50 and routinely evaluated for normal karyotypic phenotype and absence of mycoplasma contamination.
(§2) Cell clusters used in the assay were evenly resuspended in normal culture medium and plated onto MATRIGEL-coated 96-well Packard VIEWPLATES (PerkinElmer) in volumes of […]. MEF conditioned medium supplemented with 8 ng/ml bFGF was used for initial plating and recovery. Daily feeding was conducted by aspirating spent culture medium from each well and replacing with an equal volume of fresh medium. Plates were maintained at 37° C., 5% CO2 in a humidified box throughout the duration of assay.
(§3) Screening was conducted using test compounds from a proprietary library of small molecules selected for their ability to inhibit GSK-3B enzyme activity. Compounds from this library were made available as 1 mM stocks, in a 96-well plate format in 50 mM HEPES, 30% DMSO. Screening compounds were tested in triplicate or duplicate sets. Primary screening assays were initiated by aspirating culture medium from each well followed by three washes in PBS to remove residual growth factors and serum. Test volumes of 80 to 100 μl per well were added back containing DMEM:F12 base medium (Invitrogen) supplemented with 0.5% FCS (HyClone) and 100 ng/ml activin A (R&D Biosystems) plus 10 μM test compound. Positive control wells contained the same base medium, substituting 10-20 ng/ml Wnt3a (R&D Biosystems) for the test compound. Negative control wells contained base medium with 0.5% FCS and activin A alone (AA only) or alternatively, 0.5% FCS without activin A or Wnt3a (no treatment). Wells were aspirated and fed again with identical solutions on day 2 of assay. On days 3 and 4, all assay wells were aspirated and converted to DMEM:F12 supplemented with 2% FCS and 100 ng/ml activin A (without test compound or Wnt3a); parallel negative control wells were maintained in DMEM:F12 base medium with 2% FCS and activin A (AA only) or alternatively, 2% FCS without activin A (no treatment).
(§4) At the end of culture, cells in 96-well plates were fixed with 4% paraformaldehyde at room temperature for 20 minutes, washed three times with PBS, and then permeabilized with 0.5% Triton X-100 for 20 minutes at room temperature. Alternatively, cells were fixed with ice cold 70% ethanol overnight at −20° C., washed three times with PBS, and then permeabilized with Triton X-100 for 5 minutes at 4° C. After fixing and permeabilizing, cells were washed again three times with PBS and then blocked with 4% chicken serum (Invitrogen) in PBS for 30 minutes at room temperature. Primary antibodies (goat anti-human Sox17 and goat anti-human HNF-3beta; R&D Systems) were diluted 1:100 in 4% chicken serum and added to cells for one hour at room temperature. Alexa Fluor 488 conjugated secondary antibody (chicken anti-goat IgG; Molecular Probes) was diluted 1:200 in PBS and added after washing the cells three times with PBS. To counterstain nuclei, 5 mM Draq5 (Alexis Biochemicals) was added for five minutes at room temperature. Cells were washed once with PBS and left in […] PBS for imaging.
(§5) Cells were imaged using an IN Cell Analyzer 1000 (GE Healthcare) utilizing the 51008bs dichroic for cells stained with Draq5 and Alexa Fluor 488. […]

Test [3] deals with Sox17 expression in human embryonic stem cells (H9 line). Nature of the test: High content screening assay: Sox17 protein expression (differentiation). To be noted: for SOX-17 Expression Fold over Wnt 3a/AA control: total intensity normalised to Wnt 3a/AA control. As to the method:
as §1, §2, §3, §4, §5

The subject of test [4] is HNF-3beta expression in human embryonic stem cells (H9 line). Nature of the test: High content screening assay: HNF-3beta protein expression (differentiation). To be noted: for HNF3β Expression, Fold over Wnt 3a/AA control / fold induction at 10 µM: 10 μM test compound with 100 ng/ml activin A on days 1-2, H9, total intensity by IN Cell Analyzer, strong and moderate hits; for HNF-3b Expression Fold over Wnt 3a/AA control: total intensity normalised to Wnt 3a/AA control; for fold induction at 10 µM: Homo sapiens, Embryonic stem cell, read-out: HNF3β Expression, Fold over Wnt 3a/AA control. As to the method: as §1, §2, §3, §4, §5

The mark [5] stands for this setting: 10 μM test compound with 100 ng/ml activin A on days 1-2, H9, total cell number by IN Cell Analyzer, strong and moderate hits.
The mark [6] stands for this setting: cell number in the wells analysed for HNF-3b expression.
The mark [7] stands for this setting: cell number in the wells analysed for HNF-3b expression, normalised to Wnt 3a/AA control.
Where [8] appears, read: cell number in the wells analysed for SOX-17 expression.
Setting [9] is: cell number in the wells analysed for SOX-17 expression, normalised to Wnt 3a/AA control.
The mark [10] stands for this setting: 10 μM test compound with 100 ng/ml activin A on days 1-2, H9, total intensity by IN Cell Analyzer, strong and moderate hits.

Structures are written as SMILES.

Regarding `COCCN1CCOCCn2cc(c3ccccc32)C2=C(C(=O)NC2=O)c2nn(c3ccccc23)CCOCC1` [Compound 10, 11-(2-Methoxyethyl)-6,7,10,11,12,13,15,16-octahydro-9H,23H-5,26-(azeno)-17,22-(metheno)dibenzo[k,q]pyrrolo[3,4-n][1,7,4,10,19]dioxatriazacyclohenicosine-23,25(24H)-dione], in test [1], the “Raw data (duplicate), first replicate” value is recorded as 0.601; the “Raw data (duplicate), second replicate” value came out at 0.620; the Average is 0.611; the “% Control” value is recorded as 72.2%. Moreover, the “Proliferative Response Fold over Wnt 3a/AA control” value (“Proliferative Response Fold” below) in test [2] (setting [5]) is listed as 0.8926 Fold over Wnt 3a/AA control. Moreover, the “Proliferative Response Total cells” value in test [2] (setting [6]) was 4507. For the same compound, the “Proliferative Response Fold” value in test [2] (setting [7]) was 0.8926 fold. Besides, the “Proliferative Response Total cells” value in test [2] (setting [8]) was 4645.5. In test [2] (setting [9]), the “Proliferative Response Fold” value stood at 0.5829 fold. For the same compound, the “SOX17 Expression, Fold over Wnt 3a/AA control” value (“SOX17 Expression, Fold” for short) in test [3] (setting [10]) is listed as 0.6864 Fold over Wnt 3a/AA control. For the same compound, in test [3], the “SOX-17 Expression Total Intensity” value was 257295000 and the “SOX-17 Expression Fold over Wnt 3a/AA control” value (“SOX-17 Expression Fold” for short) is recorded as 0.6864 fold. Further, in test [4], the “HNF3β Expression, Fold over Wnt 3a/AA control” value is 0.6803 Fold over Wnt 3a/AA control; the “HNF-3b Expression Total Intensity” value was determined as 312605000; the “HNF-3b Expression Fold over Wnt 3a/AA control” value (“HNF-3b Expression Fold” for short) came to 0.6803 fold.

For `O=C1NC(=O)C2=C1c1cn(c3ncccc13)CCOCCOCCOCCOCCn1cc2c2cccnc21` [Compound 6, 10,11,13,14,16,17,19,20,22,23-Decahydro-1H-9,4:24,29-di(metheno)dipyrido[2,3-n:3′,2′-t]pyrrolo[3,4-q][1,4,7,10,13,22]tetraoxadiazacyclotetracosine-1,3(2H)-dione], in test [1], the “Raw data (duplicate), first replicate” value was 0.706; the “Raw data (duplicate), second replicate” value is on record as 0.672; the Average turned out to be 0.689; the “% Control” value is 83.9%. In test [2] (setting [5]), the “Proliferative Response Fold” value is given as 1.9264 Fold over Wnt 3a/AA control. Besides, the “Proliferative Response Total cells” value in test [2] (setting [6]) turned out to be 9728. In test [2] (setting [7]), the “Proliferative Response Fold” value stood at 1.926 fold. For the same compound, the “Proliferative Response Total cells” value in test [2] (setting [8]) is reported as 9964.5. The “Proliferative Response Fold” value in test [2] (setting [9]) is listed as 1.25 fold. Moreover, the “SOX17 Expression, Fold” value in test [3] (setting [10]) is given as 0.9706 Fold over Wnt 3a/AA control. In addition, in test [3], the “SOX-17 Expression Total Intensity” value stood at 363855000 and the “SOX-17 Expression Fold” value is on record as 0.9706 fold. In addition, in test [4], the “HNF3β Expression, Fold over Wnt 3a/AA control” value is given as 1.3832 Fold over Wnt 3a/AA control; the “HNF-3b Expression Total Intensity” value is listed as 635655000; the “HNF-3b Expression Fold” value turned out to be 1.3832 fold.

For the compound `CN(C)CCCn1nc(C2=C(c3cn(-c4cccc5ccccc45)c4ccccc34)C(=O)NC2=O)c2ccccc21` [Compound 8], in test [1], the viability at 10 µM stood at 5.2%; the “Raw data (duplicate), first replicate” value is reported as 0.165; the “Raw data (duplicate), second replicate” value is 0.154; the Average worked out at 0.159. Besides, in test [2] (setting [5]), the fold induction at 10 µM is 1.01. Further, the “Proliferative Response Total cells” value in test [2] (setting [6]) stood at 5096. The “Proliferative Response Total cells” value in test [2] (setting [8]) worked out at 5706.5. Besides, the fold induction at 10 µM in test [3] (Homo sapiens, Embryonic stem cell, 10 μM test compound with 100 ng/ml activin A on days 1-2, H9, total intensity by IN Cell Analyzer, strong and moderate hits, read-out: SOX17 Expression, Fold over Wnt 3a/AA control) amounted to 0.853. Besides, in test [3], the “SOX-17 Expression Total Intensity” value is reported as 319930000. For the same compound, in test [4], the fold induction at 10 µM was found to be 0.743 and the “HNF-3b Expression Total Intensity” value was 341360000.

As for `O=C1NC(=O)C(c2cn(-c3cccnc3)c3ccccc23)=C1c1n[nH]c2ccccc12` [Compound 14], the viability at 10 µM in test [1] was 95.1%. In addition, the fold induction at 10 µM amounted to 1.05 in test [2] (setting [5]) and 0.869 in test [4]. In addition, the “SOX17 Expression, Fold” value in test [3] (setting [10]) is on record as 1.0080 Fold over Wnt 3a/AA control.

Take `CN(C)CCCn1cc(C2=C(c3ccccc3Cl)C(=O)NC2=O)c2cccnc21` [Compound 12, 3-(2-Chlorophenyl)-4-{1-[3-(dimethylamino)propyl]-1H-pyrrolo[2,3-b]pyridin-3-yl}-1H-pyrrole-2,5-dione]: in test [1], the viability at 10 µM worked out at 4.8%; the “Raw data (duplicate), first replicate” value amounted to 0.148; the “Raw data (duplicate), second replicate” value was 0.152; the Average was determined as 0.150. Moreover, the “Proliferative Response Total cells” value in test [2] (setting [6]) worked out at 2410. Besides, the “Proliferative Response Total cells” value in test [2] (setting [8]) was found to be 2460.5. The “SOX-17 Expression Total Intensity” value in test [3] is listed as 203350000. Besides, the “HNF-3b Expression Total Intensity” value in test [4] was determined as 209795000.

On to `CN1CCCn2cc(c3ccccc32)C2=C(C(=O)NC2=O)c2cn(c3ccccc23)CCOCCOCC1` [Compound 3, 14-Methyl-6,7,9,10,12,13,14,15,16,17-decahydro-24H-5,27:18,23-di(metheno)dibenzo[l,r]pyrrolo[3,4-o][1,4,7,11,20]dioxatriazacyclodocosine-24,26(25H)-dione], for which, in test [1], the “Raw data (duplicate), first replicate” value worked out at 0.161; the “Raw data (duplicate), second replicate” value was found to be 0.169; the Average was found to be 0.165; the “% Control” value is 6.9%. The “Proliferative Response Total cells” value in test [2] (setting [6]) was 2184. The “Proliferative Response Fold” value in test [2] (setting [7]) is given as 0.4324 fold. Further, the “Proliferative Response Total cells” value in test [2] (setting [8]) stood at 1766. For the same compound, in test [2] (setting [9]), the “Proliferative Response Fold” value came to 0.2216 fold. Moreover, in test [3], the “SOX-17 Expression Total Intensity” value stood at 162790000 and the “SOX-17 Expression Fold” value turned out to be 0.4343 fold. Besides, in test [4], the “HNF-3b Expression Total Intensity” value is 189875000 and the “HNF-3b Expression Fold” value is given as 0.4132 fold.

Values taken from patent US20130337564A1, “Treatment of Pluripotent Cells” (Janssen Biotech, Inc., priority 2012, published 2013).
